Values quoted from earlier work, collected in patent US6960571B2, “Methods and compositions for administration of iron for the treatment of restless leg syndrome” (Luitpold Pharmaceuticals, Inc., priority 2003, dated 2005).
Read-outs that look alike come from different tables or passages of the source.

Question: For `NC(=O)N1c2ccccc2C=Cc2ccccc21` [Carbamazepine], which “% affected by side effects” value (Epilepsy patients, fetal malformation, rash, hyponatremia, hepatotoxicity, blood disorders, ataxia, gastro-intestinal problems, sexual dysfunction, toxicity) is on record?
Answer: Its value is 1-33%.

Question: For `O=C1CN=C(c2ccccc2Cl)c2cc([N+](=O)[O-])ccc2N1` [Clonazepam], which “% affected by side effects” value (Epilepsy patients, somnolence, depression, in-coordination) is on record?
Answer: Its value is 6-37%.

Question: Which “% affected by side effects” value (Hypertension patients, reduced blood pressure, dermatitis, systemic side effects (dry mouth, somnolence, dizziness, headache)) does the source give for `Clc1cccc(Cl)c1N=C1NCCN1` [Clonidine] here?
Answer: Its value is 8-89%.

Question: Which “% affected by side effects” value (Epilepsy patients, fatigue, dizziness, somnolence, ataxia) does the source give for `NCC1(CC(=O)O)CCCCC1` [Gabapentin] here?
Answer: The value was 11-19%.

Question: Which “% affected by side effects” value (Parkinson patients, somnolence, insomnia, nausea, constipation, hallucinations) does the source give for `CCCN[C@H]1CCc2nc(N)sc2C1` [Pramipexole] here?
Answer: The value was 9-28%.

Question: Which “% affected by side effects” value (Insomnia patients, drowsiness, dizziness, memory impairment) does the source give for `Cc1nnc2n1-c1ccc(Cl)cc1C(c1ccccc1Cl)=NC2` [Triazolam] here?
Answer: Its value is 1-14%.

Question: Which “% affected by side effects” value (Parkinson patients, dyskinesia, nausea, hallucinations, rhinitis, constipation, pain) does the source give for Pergolide w/ levodopa/carbidopa here?
Answer: Its value is 7-62%.

Question: Which “% affected by side effects” value (Parkinson patients, dyskinesia, nausea, hallucinations) does the source give for levodopa/carbidopa here?
Answer: The value was 4-17%.
